In US20090098536A1, “Method for subgroup analysis in subjects having or being suspected of having inflammatory disease, use of anti-p38MAPK antibodies, kits and their use” (c-a-i-r- biosciences GmbH, priority 2007, published 2009):

Tests used:
p38MAPKα = p38MAPKα (Homo sapiens, UniProt Q16539); details: disclosed in WO 2004/110990; cited from earlier work
[1] = tested on: patients with moderate to severe rheumatoid arthritis; details: cohort of 315 patients with moderate to severe rheumatoid arthritis; placebo effect about 30%; cited from earlier work
[2] = tested on: patients with moderate to severe rheumatoid arthritis; assay: VeRA trial of the p38MAPK inhibitor VX-702 in rheumatoid arthritis; format: in vivo, human; details: according to a Monte Carlo simulation of the distribution of the effects
Protocol: It has been claimed that p38MAPK inhibitors were of benefit in treating a large variety of disorders. […] In the VeRA trial, which was conducted to evaluate treatment effects in terms of characteristic manifestations of the disease such as tender joints, swollen joints, morning stiffness and disease activity in a cohort of 315 patients with moderate to severe rheumatoid arthritis, approximately 40% of patients were responsive to treatment with the p38MAPK inhibitor VX-702, compared to a placebo effect of about 30%, arguing for a biochemical net response rate of about 28% according to a Monte Carlo simulation of the distribution of the effects. So far, no explanation for this evident dichotomy between responders and non-responders has been proposed yet.

p38MAPKα, sequence (Q16539 1-360 isoform Q16539-2): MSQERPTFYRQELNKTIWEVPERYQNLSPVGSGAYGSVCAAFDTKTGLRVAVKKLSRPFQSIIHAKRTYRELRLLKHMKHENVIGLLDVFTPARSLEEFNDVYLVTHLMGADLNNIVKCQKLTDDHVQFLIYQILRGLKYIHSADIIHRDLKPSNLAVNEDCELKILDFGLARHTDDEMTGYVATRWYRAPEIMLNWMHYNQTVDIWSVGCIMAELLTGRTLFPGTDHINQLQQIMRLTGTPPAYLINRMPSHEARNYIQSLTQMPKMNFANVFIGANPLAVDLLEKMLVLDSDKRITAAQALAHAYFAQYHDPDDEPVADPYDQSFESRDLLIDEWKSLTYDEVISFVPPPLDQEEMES

Row | Structure (SMILES) | IC50 (p38MAPKα) [nM] | patients responsive to treatment [1] | biochemical net response rate [2]
1 | Fc1ccc(-c2nc3occn3c2-c2ccnc(NC3CC3)n2)cc1 [4-(4-fluorophenyl)-5-(2-[cyclopropyl-amino]-pyrimidyl-4-yl)-imidazooxazole] | 0.44 | – | –
2 | NC(=O)c1ccc(N(C(N)=O)c2c(F)cccc2F)nc1-c1ccc(F)cc1F [VX-702] | – | approximately 40% | about 28%
